# Data as given in the NIST ThermoML archive (doi:10.1016/j.fluid.2015.03.015).
# ± gives the expanded uncertainty stated by the source.
# Test: refractive index (other wavelength) (dimensionless); xn = mol fraction of the nth substance listed
structure (smiles),measurement,setting,value
CCCC(C)O (centres undefined) [pentan-2-ol] + CCCCCCCC[n+]1ccn(C)c1.F[B-](F)(F)F,refractive index,"284.59 K, Liquid mixture 1, Wavelength=623.8 nm, Minimum deviation, x2 = 0.01",1.4096 ± 0.0003
same,refractive index,"284.59 K, Liquid mixture 2, Wavelength=623.8 nm, Minimum deviation, x2 = 0.347",1.4237 ± 0.0004
same,refractive index,"285.29 K, Liquid mixture 1, Wavelength=623.8 nm, Minimum deviation, x2 = 0.01",1.4093 ± 0.0004
same,refractive index,"285.29 K, Liquid mixture 2, Wavelength=623.8 nm, Minimum deviation, x2 = 0.338",1.4232 ± 0.0003
same,refractive index,"286.13 K, Liquid mixture 1, Wavelength=623.8 nm, Minimum deviation, x2 = 0.012",1.4091 ± 0.0006
same,refractive index,"286.13 K, Liquid mixture 2, Wavelength=623.8 nm, Minimum deviation, x2 = 0.332",1.4227 ± 0.0003
same,refractive index,"286.89 K, Liquid mixture 1, Wavelength=623.8 nm, Minimum deviation, x2 = 0.013",1.4088 ± 0.0005
same,refractive index,"286.89 K, Liquid mixture 2, Wavelength=623.8 nm, Minimum deviation, x2 = 0.319",1.422 ± 0.0003
same,refractive index,"287.65 K, Liquid mixture 1, Wavelength=623.8 nm, Minimum deviation, x2 = 0.015",1.4086 ± 0.0004
same,refractive index,"287.65 K, Liquid mixture 2, Wavelength=623.8 nm, Minimum deviation, x2 = 0.315",1.4216 ± 0.0003
same,refractive index,"288.19 K, 85 kPa, Liquid, Wavelength=632.8 nm, Minimum Deviation, x2 = 0.599",1.4284 ± 0.0003
same,refractive index,"288.25 K, Liquid mixture 1, Wavelength=623.8 nm, Minimum deviation, x2 = 0.016",1.4084 ± 0.0004
same,refractive index,"288.25 K, Liquid mixture 2, Wavelength=623.8 nm, Minimum deviation, x2 = 0.307",1.4211 ± 0.0003
same,refractive index,"288.8 K, 85 kPa, Liquid, Wavelength=632.8 nm, Minimum Deviation, x2 = 0.899",1.4331 ± 0.0003
same,refractive index,"288.81 K, 85 kPa, Liquid, Wavelength=632.8 nm, Minimum Deviation, x2 = 0.798",1.4316 ± 0.0003
same,refractive index,"288.92 K, Liquid mixture 1, Wavelength=623.8 nm, Minimum deviation, x2 = 0.016",1.4081 ± 0.0003
same,refractive index,"288.92 K, Liquid mixture 2, Wavelength=623.8 nm, Minimum deviation, x2 = 0.293",1.4204 ± 0.0003
same,refractive index,"288.98 K, 85 kPa, Liquid, Wavelength=632.8 nm, Minimum Deviation, x2 = 0.7",1.4298 ± 0.0003
same,refractive index,"289.54 K, Liquid mixture 1, Wavelength=623.8 nm, Minimum deviation, x2 = 0.019",1.408 ± 0.0004
same,refractive index,"289.54 K, Liquid mixture 2, Wavelength=623.8 nm, Minimum deviation, x2 = 0.288",1.42 ± 0.0003
same,refractive index,"289.74 K, 85 kPa, Liquid, Wavelength=632.8 nm, Minimum Deviation, x2 = 0.599",1.428 ± 0.0003
same,refractive index,"290.07 K, Liquid mixture 1, Wavelength=623.8 nm, Minimum deviation, x2 = 0.021",1.4079 ± 0.0004
same,refractive index,"290.07 K, Liquid mixture 2, Wavelength=623.8 nm, Minimum deviation, x2 = 0.279",1.4195 ± 0.0003
same,refractive index,"290.61 K, Liquid mixture 1, Wavelength=623.8 nm, Minimum deviation, x2 = 0.021",1.4077 ± 0.0004
same,refractive index,"290.61 K, Liquid mixture 2, Wavelength=623.8 nm, Minimum deviation, x2 = 0.271",1.419 ± 0.0003
same,refractive index,"290.84 K, 85 kPa, Liquid, Wavelength=632.8 nm, Minimum Deviation, x2 = 0.798",1.4311 ± 0.0003
same,refractive index,"290.84 K, 85 kPa, Liquid, Wavelength=632.8 nm, Minimum Deviation, x2 = 0.899",1.4326 ± 0.0003
same,refractive index,"290.99 K, 85 kPa, Liquid, Wavelength=632.8 nm, Minimum Deviation, x2 = 0.7",1.4293 ± 0.0003
same,refractive index,"291.08 K, Liquid mixture 1, Wavelength=623.8 nm, Minimum deviation, x2 = 0.023",1.4076 ± 0.0004
same,refractive index,"291.08 K, Liquid mixture 2, Wavelength=623.8 nm, Minimum deviation, x2 = 0.264",1.4186 ± 0.0003
same,refractive index,"291.3 K, 85 kPa, Liquid, Wavelength=632.8 nm, Minimum Deviation, x2 = 0.599",1.4275 ± 0.0003
same,refractive index,"291.55 K, Liquid mixture 1, Wavelength=623.8 nm, Minimum deviation, x2 = 0.025",1.4075 ± 0.0004
same,refractive index,"291.55 K, Liquid mixture 2, Wavelength=623.8 nm, Minimum deviation, x2 = 0.255",1.4181 ± 0.0003
same,refractive index,"292.02 K, Liquid mixture 1, Wavelength=623.8 nm, Minimum deviation, x2 = 0.027",1.4074 ± 0.0004
same,refractive index,"292.02 K, Liquid mixture 2, Wavelength=623.8 nm, Minimum deviation, x2 = 0.247",1.4176 ± 0.0003
same,refractive index,"292.46 K, Liquid mixture 1, Wavelength=623.8 nm, Minimum deviation, x2 = 0.03",1.4074 ± 0.0004
same,refractive index,"292.46 K, Liquid mixture 2, Wavelength=623.8 nm, Minimum deviation, x2 = 0.235",1.417 ± 0.0003
same,refractive index,"292.84 K, Liquid mixture 1, Wavelength=623.8 nm, Minimum deviation, x2 = 0.031",1.4073 ± 0.0004
same,refractive index,"292.84 K, Liquid mixture 2, Wavelength=623.8 nm, Minimum deviation, x2 = 0.229",1.4166 ± 0.0003
same,refractive index,"292.85 K, 85 kPa, Liquid, Wavelength=632.8 nm, Minimum Deviation, x2 = 0.599",1.427 ± 0.0003
same,refractive index,"292.89 K, 85 kPa, Liquid, Wavelength=632.8 nm, Minimum Deviation, x2 = 0.899",1.432 ± 0.0003
same,refractive index,"292.91 K, 85 kPa, Liquid, Wavelength=632.8 nm, Minimum Deviation, x2 = 0.798",1.4305 ± 0.0003
same,refractive index,"293.05 K, 85 kPa, Liquid, Wavelength=632.8 nm, Minimum Deviation, x2 = 0.7",1.4287 ± 0.0003
same,refractive index,"293.15 K, Liquid mixture 1, Wavelength=623.8 nm, Minimum deviation, x2 = 0.035",1.4074 ± 0.0004
same,refractive index,"293.15 K, Liquid mixture 2, Wavelength=623.8 nm, Minimum deviation, x2 = 0.221",1.4162 ± 0.0003
same,refractive index,"293.41 K, Liquid mixture 1, Wavelength=623.8 nm, Minimum deviation, x2 = 0.037",1.4074 ± 0.0004
same,refractive index,"293.41 K, Liquid mixture 2, Wavelength=623.8 nm, Minimum deviation, x2 = 0.211",1.4157 ± 0.0003
same,refractive index,"293.63 K, Liquid mixture 1, Wavelength=623.8 nm, Minimum deviation, x2 = 0.04",1.4075 ± 0.0003
same,refractive index,"293.63 K, Liquid mixture 2, Wavelength=623.8 nm, Minimum deviation, x2 = 0.206",1.4154 ± 0.0003
same,refractive index,"293.78 K, Liquid mixture 1, Wavelength=623.8 nm, Minimum deviation, x2 = 0.041",1.4075 ± 0.0003
same,refractive index,"293.78 K, Liquid mixture 2, Wavelength=623.8 nm, Minimum deviation, x2 = 0.202",1.4152 ± 0.0003
same,refractive index,"293.89 K, Liquid mixture 1, Wavelength=623.8 nm, Minimum deviation, x2 = 0.044",1.4076 ± 0.0004
same,refractive index,"293.89 K, Liquid mixture 2, Wavelength=623.8 nm, Minimum deviation, x2 = 0.201",1.4151 ± 0.0003
same,refractive index,"293.9 K, 85 kPa, Liquid, Wavelength=632.8 nm, Minimum Deviation, x2 = 0.4",1.422 ± 0.0003
same,refractive index,"293.99 K, Liquid mixture 1, Wavelength=623.8 nm, Minimum deviation, x2 = 0.045",1.4076 ± 0.0003
same,refractive index,"293.99 K, Liquid mixture 2, Wavelength=623.8 nm, Minimum deviation, x2 = 0.197",1.4149 ± 0.0003
same,refractive index,"294.09 K, Liquid mixture 1, Wavelength=623.8 nm, Minimum deviation, x2 = 0.047",1.4077 ± 0.0004
same,refractive index,"294.09 K, Liquid mixture 2, Wavelength=623.8 nm, Minimum deviation, x2 = 0.193",1.4147 ± 0.0003
same,refractive index,"294.19 K, Liquid mixture 1, Wavelength=623.8 nm, Minimum deviation, x2 = 0.048",1.4077 ± 0.0003
same,refractive index,"294.19 K, Liquid mixture 2, Wavelength=623.8 nm, Minimum deviation, x2 = 0.189",1.4145 ± 0.0003
same,refractive index,"294.27 K, Liquid mixture 1, Wavelength=623.8 nm, Minimum deviation, x2 = 0.05",1.4078 ± 0.0019
same,refractive index,"294.27 K, Liquid mixture 2, Wavelength=623.8 nm, Minimum deviation, x2 = 0.188",1.4144 ± 0.0003
same,refractive index,"294.35 K, Liquid mixture 1, Wavelength=623.8 nm, Minimum deviation, x2 = 0.053",1.4079 ± 0.0004
same,refractive index,"294.35 K, Liquid mixture 2, Wavelength=623.8 nm, Minimum deviation, x2 = 0.184",1.4142 ± 0.0003
same,refractive index,"294.42 K, 85 kPa, Liquid, Wavelength=632.8 nm, Minimum Deviation, x2 = 0.599",1.4265 ± 0.0003
same,refractive index,"294.42 K, Liquid mixture 1, Wavelength=623.8 nm, Minimum deviation, x2 = 0.054",1.4079 ± 0.0004
same,refractive index,"294.42 K, Liquid mixture 2, Wavelength=623.8 nm, Minimum deviation, x2 = 0.18",1.414 ± 0.0003
same,refractive index,"294.49 K, Liquid mixture 1, Wavelength=623.8 nm, Minimum deviation, x2 = 0.056",1.408 ± 0.0004
same,refractive index,"294.49 K, Liquid mixture 2, Wavelength=623.8 nm, Minimum deviation, x2 = 0.175",1.4138 ± 0.0003
same,refractive index,"294.54 K, Liquid mixture 1, Wavelength=623.8 nm, Minimum deviation, x2 = 0.058",1.4081 ± 0.0004
same,refractive index,"294.54 K, Liquid mixture 2, Wavelength=623.8 nm, Minimum deviation, x2 = 0.174",1.4137 ± 0.0003
same,refractive index,"294.6 K, Liquid mixture 1, Wavelength=623.8 nm, Minimum deviation, x2 = 0.06",1.4082 ± 0.0003
same,refractive index,"294.6 K, Liquid mixture 2, Wavelength=623.8 nm, Minimum deviation, x2 = 0.172",1.4136 ± 0.0004
same,refractive index,"294.64 K, Liquid mixture 1, Wavelength=623.8 nm, Minimum deviation, x2 = 0.063",1.4083 ± 0.0004
